The test system of this experiment is allergen challenged allergic mice. Put plainly: Allergic pulmonary inflammation model (ovalbumin/alum sensitized mice, intratracheal ovalbumin challenge, BAL fluid analysis). Format: in vivo, Balb/c female mice. As to conditions: for total cellular infiltrate (cells recovered in the bronchoalveolar lavage fluid) / neutrophils and monocytes/macrophages at the site of inflammation (BAL fluid) / number of eosinophils recovered in the BAL fluid / IL-5 levels in the BAL fluid / IL-10 levels in the BAL fluid: ovalbumin/alum sensitized mice; for total cellular infiltrate (cells recovered in the bronchoalveolar lavage fluid): intratracheal ovalbumin challenge, compared to buffer-treated mice; for neutrophils and monocytes/macrophages at the site of inflammation (BAL fluid) / number of eosinophils recovered in the BAL fluid / IL-5 levels in the BAL fluid / IL-10 levels in the BAL fluid: ovalbumin challenge; for IL-5 levels in the BAL fluid / IL-10 levels in the BAL fluid: ELISA. The source says: This model is used below to evaluate the effect of the compounds of the invention and to carry out comparative tests.
The prevention protocol is designed to determine the ability of treatment to prevent the development of symptoms of allergic pulmonary inflammation in subsequently sensitized mice. The therapeutic protocol is designed to determine the ability of treatment to cure symptoms of allergic pulmonary inflammation in sensitized mice.
In the prevention protocol Balb/c female mice (7-8 weeks of age, 17-20 g in weight) are treated with saline or buffer—0.001% FFA albumin in saline (as positive control) or lipid fractions of mycobacteria (taken form the sample deposited at the National Collection of Type Cultures under deposit number NCTC 11659). Three weeks after treatment all mice are sensitized intraperitoneally with 10 μg ovalbumin (OVA) and Alum (a 100 μl preparation of Alum supplied by Serva-Alu-Gel-S suspension). Sensitization is repeated after twelve days. On day 19, mice are intratracheally challenged with OVA (0.5 μg in 50 μl saline). Intratracheal antigenic challenge is repeated two days later. Twenty-four or 48 hours after the last challenge, the experiment is terminated.
In the therapeutic protocol mice are sensitized with OVA and Alum on day 0 and 12. On day 21, mice are treated as appropriate. Mice are resensitized on days 42 and 54. On days 61 and 63, mice are challenged intratracheally with OVA and the experiment terminated 24 or 48 hours later.
In some experiments, a small number of mice from the positive control group are challenged intratracheally with saline alone to determine the background level of cells infiltrating the lungs of sensitized mice in the absence of an allergic episode (negative control).
A number of end points are routinely assessed. Mice are bled by cardiac puncture and blood collected for serum analysis. The lungs are lavaged three times with 0.3 ml of sterile RPMI containing Penicillin/Streptomycin. The lavage fluid is collected and recovered cells are counted. Fifty or 100 μl of lavage fluid is used for a cytospin, which is stained (Wright-Giemsa stain), fixed in methanol and used for the morphological identification of specific cell populations of interest (eosinophils, neutrophils and monocytes/macrophages). The remaining fluid is spun down and the supernatant stored for cytokine measurement by ELISA. Spleens are pooled per treatment groups, a single cell suspension of splenocytes is obtained and placed in culture with OVA for specific antigenic stimulation and with anti-CD3 for polyclonal T cell stimulation. Supernatants are collected and stored for cytokine measurement by ELISA.
In general terms: In an ELISA, binding on a coated surface is turned into a signal by an enzyme label.

From patent US7569213B2, “Immunotherapeutic agent” (Stanford Rook Limited, priority 2004, dated 2009) come the findings set out here.

Structures are written as SMILES. “Also recorded” adds a separate entry of the source.

As to `CCCCC/C=C/CCCCCCCCC(=O)O` [C16:1 10-11 trans], the “total cellular infiltrate (cells recovered in the bronchoalveolar lavage fluid)” value is on record as “reduction in the cellular infiltrate”.

`CCCCC=CCCCCCCCCCC(=O)OCC(COC(=O)CCCCCCCCCC=CCCCC)OC(=O)CCCCCCCCCC=CCCCC` (stereo not drawn) [C16:1 11-12]: the “total cellular infiltrate (cells recovered in the bronchoalveolar lavage fluid)” value was “failed to reduce”.

With `CCCCC/C=C\CCCCCCCCC(=O)O` [SRP312f, hexadecenoic acid (10Z)], the “neutrophils and monocytes/macrophages at the site of inflammation (BAL fluid)” value is reported as “did not result in neutrophilia or in an increase of monocytes or macrophages”; the “number of eosinophils recovered in the BAL fluid” value was “significant reduction”; the “IL-5 levels in the BAL fluid” value is “reduced”; the “IL-10 levels in the BAL fluid” value was “increased”.

As for `CCCCC/C=C\CCCCCCCCC(=O)OCC(COC(=O)CCCCCCCC/C=C\CCCCC)OC(=O)CCCCCCCC/C=C\CCCCC` [SRP312t, tri-ester of 1,2,3-propanetriol and hexadecenoic acid (10Z)], the “total cellular infiltrate (cells recovered in the bronchoalveolar lavage fluid)” value was “reduced the total cellular infiltrate; also recorded: greater reduction”; the “neutrophils and monocytes/macrophages at the site of inflammation (BAL fluid)” value is recorded as “did not result in neutrophilia or in an increase of monocytes or macrophages”; the “number of eosinophils recovered in the BAL fluid” value was “significant reduction”; the “IL-5 levels in the BAL fluid” value is recorded as “reduced”. The “IL-10 levels in the BAL fluid” value is recorded as “increased”. Moreover, the “total cellular infiltrate in the lungs” value (single dose as low as 1 μg (doses tested 5 μg, 1 μg, 0.1 μg)) is recorded as “significantly reduce”.
